{"source": "PubChem BioAssay (NCI)", "experiment_in_all_cases": "inhibition of tumour cell growth, NCI panel, 48 h", "key": {"786-0 renal": {"system": "786-0 renal"}, "A498 renal": {"system": "A498 renal"}, "ACHN renal": {"system": "ACHN renal"}, "CAKI-1 renal": {"system": "CAKI-1 renal"}, "CCRF-CEM leukemia": {"system": "CCRF-CEM leukemia"}, "DU-145 prostate": {"system": "DU-145 prostate"}, "EKVX NSCLC": {"system": "EKVX NSCLC"}, "HCC-2998 colon": {"system": "HCC-2998 colon"}, "HCT-116 colon": {"system": "HCT-116 colon"}, "HCT-15 colon": {"system": "HCT-15 colon"}, "HL-60(TB) leukemia": {"system": "HL-60(TB) leukemia"}, "HOP-62 NSCLC": {"system": "HOP-62 NSCLC"}, "HOP-92 NSCLC": {"system": "HOP-92 NSCLC"}, "HS 578T breast": {"system": "HS 578T breast"}, "IGROV1 ovarian": {"system": "IGROV1 ovarian"}, "K-562 leukemia": {"system": "K-562 leukemia"}, "KM12 colon": {"system": "KM12 colon"}, "LOX IMVI melanoma": {"system": "LOX IMVI melanoma"}, "M14 melanoma": {"system": "M14 melanoma"}, "MALME-3M melanoma": {"system": "MALME-3M melanoma"}, "MCF7 breast": {"system": "MCF7 breast"}, "MDA-MB-231 breast": {"system": "MDA-MB-231 breast"}, "MDA-MB-435": {"system": "MDA-MB-435"}, "MOLT-4 leukemia": {"system": "MOLT-4 leukemia"}, "NCI-H23 lung": {"system": "NCI-H23 lung"}, "NCI-H460 lung": {"system": "NCI-H460 lung"}, "NCI-H522 lung": {"system": "NCI-H522 lung"}, "OVCAR-5 ovarian": {"system": "OVCAR-5 ovarian"}, "OVCAR-8 ovarian": {"system": "OVCAR-8 ovarian"}, "PC-3 prostate": {"system": "PC-3 prostate"}, "RPMI-8226 leukemia": {"system": "RPMI-8226 leukemia"}, "SF-268 CNS": {"system": "SF-268 CNS"}, "SF-295 CNS": {"system": "SF-295 CNS"}, "SF-539 CNS": {"system": "SF-539 CNS"}, "SK-MEL-2 melanoma": {"system": "SK-MEL-2 melanoma"}, "SK-MEL-5 melanoma": {"system": "SK-MEL-5 melanoma"}, "SK-OV-3 ovarian": {"system": "SK-OV-3 ovarian"}, "SNB-19 CNS": {"system": "SNB-19 CNS"}, "SNB-75 CNS": {"system": "SNB-75 CNS"}, "SR leukemia": {"system": "SR leukemia"}, "SW-620 colon": {"system": "SW-620 colon"}, "TK-10 renal": {"system": "TK-10 renal"}, "U251 CNS": {"system": "U251 CNS"}, "UACC-62 melanoma": {"system": "UACC-62 melanoma"}, "UO-31 renal": {"system": "UO-31 renal"}}, "note": "Several values for one entry are separate records, joined by “and”; a condition that tells them apart may be missing. Identical values can stand only once.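 How tested: cells in 96-well plates exposed to compound for 48 hours at five concentrations. GI50: concentration for 50% inhibition of growth. The concentration for full growth arrest is given as TGI.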", "data": [{"smiles": "O=C(/C=C/c1nnc2n(Cc3ccccc3)c(=O)c3c4c(sc3n12)CCCC4)c1ccccc1", "values": [{"measurement": "GI50", "setting": "786-0 renal", "value": "1560 nM and 2360 nM"}, {"measurement": "GI50", "setting": "A498 renal", "value": "> 100000", "unit": "nM"}, {"measurement": "TGI", "setting": "A498 renal", "value": "> 100000", "unit": "nM"}, {"measurement": "GI50", "setting": "ACHN renal", "value": 3900, "unit": "nM"}, {"measurement": "TGI", "setting": "CAKI-1 renal", "value": "> 100000", "unit": "nM"}, {"measurement": "GI50", "setting": "CCRF-CEM leukemia", "value": "328 nM and 205 nM"}, {"measurement": "TGI", "setting": "CCRF-CEM leukemia", "value": "4690 nM and 699 nM"}, {"measurement": "GI50", "setting": "DU-145 prostate", "value": "> 100000", "unit": "nM"}, {"measurement": "TGI", "setting": "DU-145 prostate", "value": "> 100000", "unit": "nM"}, {"measurement": "GI50", "setting": "EKVX NSCLC", "value": "> 100000", "unit": "nM"}, {"measurement": "TGI", "setting": "EKVX NSCLC", "value": "> 100000", "unit": "nM"}, {"measurement": "GI50", "setting": "HCC-2998 colon", "value": "> 100000", "unit": "nM"}, {"measurement": "TGI", "setting": "HCC-2998 colon", "value": "> 100000", "unit": "nM"}, {"measurement": "GI50", "setting": "HCT-116 colon", "value": 310, "unit": "nM"}, {"measurement": "TGI", "setting": "HCT-116 colon", "value": 1120, "unit": "nM"}, {"measurement": "GI50", "setting": "HCT-15 colon", "value": "2040 nM and 389 nM"}, {"measurement": "TGI", "setting": "HCT-15 colon", "value": "> 100000", "unit": "nM"}, {"measurement": "GI50", "setting": "HL-60(TB) leukemia", "value": "407 nM and 332 nM"}, {"measurement": "TGI", "setting": "HL-60(TB) leukemia", "value": "> 100000", "unit": "nM"}, {"measurement": "TGI", "setting": "HOP-62 NSCLC", "value": "> 100000", "unit": "nM"}, {"measurement": "GI50", "setting": "HOP-92 NSCLC", "value": 1550, "unit": "nM"}, {"measurement": "TGI", "setting": "HOP-92 NSCLC", "value": "> 100000", "unit": "nM"}, {"measurement": "GI50", "setting": "HS 578T breast", "value": "3760 nM and 502 nM"}, {"measurement": "TGI", "setting": "HS 578T breast", "value": "> 100000", "unit": "nM"}, {"measurement": "GI50", "setting": "IGROV1 ovarian", "value": "> 100000", "unit": "nM"}, {"measurement": "TGI", "setting": "IGROV1 ovarian", "value": "> 100000", "unit": "nM"}, {"measurement": "GI50", "setting": "K-562 leukemia", "value": "902 nM and 199 nM"}, {"measurement": "TGI", "setting": "K-562 leukemia", "value": "> 100000", "unit": "nM"}, {"measurement": "GI50", "setting": "KM12 colon", "value": 4100, "unit": "nM"}, {"measurement": "GI50", "setting": "LOX IMVI melanoma", "value": 3480, "unit": "nM"}, {"measurement": "TGI", "setting": "M14 melanoma", "value": "> 100000", "unit": "nM"}, {"measurement": "GI50", "setting": "MALME-3M melanoma", "value": "> 100000", "unit": "nM"}, {"measurement": "TGI", "setting": "MALME-3M melanoma", "value": "> 100000", "unit": "nM"}, {"measurement": "TGI", "setting": "MCF7 breast", "value": "> 100000", "unit": "nM"}, {"measurement": "GI50", "setting": "MDA-MB-231 breast", "value": 219, "unit": "nM"}, {"measurement": "TGI", "setting": "MDA-MB-231 breast", "value": 550, "unit": "nM"}, {"measurement": "GI50", "setting": "MDA-MB-435", "value": 3540, "unit": "nM"}, {"measurement": "GI50", "setting": "MOLT-4 leukemia", "value": "622 nM and 248 nM"}, {"measurement": "TGI", "setting": "MOLT-4 leukemia", "value": 769, "unit": "nM"}, {"measurement": "GI50", "setting": "NCI-H23 lung", "value": "> 100000", "unit": "nM"}, {"measurement": "TGI", "setting": "NCI-H23 lung", "value": "> 100000", "unit": "nM"}, {"measurement": "GI50", "setting": "NCI-H460 lung", "value": "> 100000", "unit": "nM"}, {"measurement": "TGI", "setting": "NCI-H460 lung", "value": "> 100000", "unit": "nM"}, {"measurement": "GI50", "setting": "NCI-H522 lung", "value": 1090, "unit": "nM"}, {"measurement": "TGI", "setting": "NCI-H522 lung", "value": "> 100000", "unit": "nM"}, {"measurement": "GI50", "setting": "OVCAR-5 ovarian", "value": "> 100000", "unit": "nM"}, {"measurement": "TGI", "setting": "OVCAR-5 ovarian", "value": "> 100000", "unit": "nM"}, {"measurement": "GI50", "setting": "OVCAR-8 ovarian", "value": 38.7, "unit": "nM"}, {"measurement": "TGI", "setting": "OVCAR-8 ovarian", "value": 419, "unit": "nM"}, {"measurement": "GI50", "setting": "PC-3 prostate", "value": 1420, "unit": "nM"}, {"measurement": "TGI", "setting": "PC-3 prostate", "value": 4440, "unit": "nM"}, {"measurement": "GI50", "setting": "RPMI-8226 leukemia", "value": "177 nM and 254 nM"}, {"measurement": "TGI", "setting": "RPMI-8226 leukemia", "value": "817 nM and 738 nM"}, {"measurement": "GI50", "setting": "SF-268 CNS", "value": 4590, "unit": "nM"}, {"measurement": "TGI", "setting": "SF-268 CNS", "value": "> 100000", "unit": "nM"}, {"measurement": "TGI", "setting": "SF-295 CNS", "value": "> 100000", "unit": "nM"}, {"measurement": "GI50", "setting": "SF-539 CNS", "value": "> 100000", "unit": "nM"}, {"measurement": "TGI", "setting": "SF-539 CNS", "value": "> 100000", "unit": "nM"}, {"measurement": "GI50", "setting": "SK-MEL-2 melanoma", "value": 3200, "unit": "nM"}, {"measurement": "GI50", "setting": "SK-MEL-5 melanoma", "value": "> 100000", "unit": "nM"}, {"measurement": "TGI", "setting": "SK-MEL-5 melanoma", "value": "> 100000", "unit": "nM"}, {"measurement": "GI50", "setting": "SK-OV-3 ovarian", "value": "> 100000", "unit": "nM"}, {"measurement": "TGI", "setting": "SK-OV-3 ovarian", "value": "> 100000", "unit": "nM"}, {"measurement": "GI50", "setting": "SNB-19 CNS", "value": "> 100000", "unit": "nM"}, {"measurement": "TGI", "setting": "SNB-19 CNS", "value": "> 100000", "unit": "nM"}, {"measurement": "GI50", "setting": "SNB-75 CNS", "value": 21300, "unit": "nM"}, {"measurement": "TGI", "setting": "SNB-75 CNS", "value": 91200, "unit": "nM"}, {"measurement": "GI50", "setting": "SR leukemia", "value": "52.2 nM and 217 nM"}, {"measurement": "TGI", "setting": "SR leukemia", "value": 658, "unit": "nM"}, {"measurement": "GI50", "setting": "SW-620 colon", "value": 3140, "unit": "nM"}, {"measurement": "GI50", "setting": "TK-10 renal", "value": 354, "unit": "nM"}, {"measurement": "TGI", "setting": "TK-10 renal", "value": 1380, "unit": "nM"}, {"measurement": "GI50", "setting": "U251 CNS", "value": 2220, "unit": "nM"}, {"measurement": "TGI", "setting": "U251 CNS", "value": 7760, "unit": "nM"}, {"measurement": "GI50", "setting": "UACC-62 melanoma", "value": "> 100000", "unit": "nM"}, {"measurement": "TGI", "setting": "UACC-62 melanoma", "value": "> 100000", "unit": "nM"}, {"measurement": "GI50", "setting": "UO-31 renal", "value": 3060, "unit": "nM"}]}]}
